Data set [1] deals with Human immunodeficiency virus 1. Put plainly: Antiviral activity against HIV1 harboring reverse transcriptase L100I mutant infected in human MT4 cells assessed as inhibition of viral replication after 5 days by MTT assay. The data set is classed as functional, organism-based. The note with it: Human immunodeficiency virus 1, MT4, 120 h. A general note: Tetrazolium dyes change colour on reduction, which living cells bring about.

For data set [2], the system named is Human immunodeficiency virus 1. Put plainly: Antiviral activity against HIV1 harboring reverse transcriptase F227L/V106A double mutant infected in human MT4 cells assessed as inhibition of viral replication after 5 days by MTT assay. In kind it is functional, organism-based. The conditions noted are these: Human immunodeficiency virus 1, MT4, 120 h.
Data set [3] has as its system Human immunodeficiency virus 1. Description: Antiviral activity against HIV1 harboring reverse transcriptase E138K mutant infected in human MT4 cells assessed as inhibition of viral replication after 5 days by MTT assay. In kind it is functional, organism-based. The note with it: Human immunodeficiency virus 1, MT4, 120 h.
Data set [4] concerns Human immunodeficiency virus 1. Put plainly: Antiviral activity against HIV1 RES056 harboring reverse transcriptase K103N/Y181C double mutant infected in human MT4 cells assessed as inhibition of viral replication after 5 days by MTT assay. In kind it is functional, organism-based. The conditions noted are these: Human immunodeficiency virus 1, RES056, MT4, 120 h.
The nature of data set [5]: Selectivity index, ratio of CC50 for human MT4 cells to EC50 for wild type HIV1 3B. The data set is classed as toxicity. The note with it: read-out: Ratio CC50/EC50.
Data set [6] relates to Human immunodeficiency virus 1. Put plainly: Potency index, ratio of etravirine EC50 to compound EC50 for HIV1 harboring reverse transcriptase K103N mutant infected in human MT4 cells. In kind it is functional.
Data set [7] can be described thus: Cytotoxicity against human MT4 cells assessed as decrease in cell viability after 5 days by MTT assay. In kind it is cell-based.
For data set [8], the system named is Human immunodeficiency virus 1. Put plainly: Antiviral activity against HIV1 harboring reverse transcriptase Y188L mutant infected in human MT4 cells assessed as inhibition of viral replication after 5 days by MTT assay. The data set is classed as functional, organism-based.
For data set [9], the target named is Human immunodeficiency virus type 1 reverse transcriptase (Human immunodeficiency virus 1, UniProt Q72547). Description: Inhibition of recombinant wild type HIV1 reverse transcriptase assessed as decrease in biotin-dUTP incorporation using DIG-labeled dUTP/biotin-labeled dUTP and dTTP as template and viral nucleotides after 1 hr by ELISA. For orientation: ELISA stands for enzyme-linked immunosorbent assay.

In data set [10] the test system is Human immunodeficiency virus 1. Description: Antiviral activity against wild type HIV1 3B infected in human MT4 cells assessed as inhibition of virus-induced cytopathic effect after 5 days by MTT assay. The conditions noted are these: Human immunodeficiency virus 1, 3B, MT4, 120 h. The data set is classed as functional, organism-based. Background: Protection from cytopathic effect is a common read-out in antiviral testing.

For data set [11], the system named is Human immunodeficiency virus 1. Description: Antiviral activity against HIV1 harboring reverse transcriptase K103N mutant infected in human MT4 cells assessed as inhibition of viral replication after 5 days by MTT assay. The data set is classed as functional, organism-based. The note with it: Human immunodeficiency virus 1, MT4, 120 h.
Data set [12] has as its system Human immunodeficiency virus 1. Put plainly: Antiviral activity against HIV1 harboring reverse transcriptase Y181C mutant infected in human MT4 cells assessed as inhibition of viral replication after 5 days by MTT assay. In kind it is functional, organism-based. The note with it: Human immunodeficiency virus 1, MT4, 120 h.
For data set [13], the system named is Human immunodeficiency virus 2. Put plainly: Antiviral activity against HIV2 ROD infected in human MT4 cells assessed as inhibition of virus-induced cytopathic effect after 5 days by MTT assay. In kind it is functional, organism-based. The note with it: ISOLATE ROD.
The test system of data set [14] is Human immunodeficiency virus 1. Description: Potency index, ratio of etravirine EC50 to compound EC50 for wild type HIV1 3B infected in human MT4 cells. In kind it is functional.
The subject of data set [15] is Human immunodeficiency virus 1. Put plainly: Potency index, ratio of etravirine EC50 to compound EC50 for HIV1 harboring reverse transcriptase Y181C mutant infected in human MT4 cells. The data set is classed as functional.
Data set [16] concerns Human immunodeficiency virus 1. Put plainly: Potency index, ratio of etravirine EC50 to compound EC50 for HIV1 harboring reverse transcriptase E138K mutant infected in human MT4 cells. In kind it is functional.
The subject of data set [17] is Human immunodeficiency virus 1. Description: Potency index, ratio of etravirine EC50 to compound EC50 for HIV1 harboring reverse transcriptase Y188L mutant infected in human MT4 cells. In kind it is functional.
For data set [18], the system named is Human immunodeficiency virus 1. Description: Potency index, ratio of etravirine EC50 to compound EC50 for HIV1 harboring reverse transcriptase L100I mutant infected in human MT4 cells. The data set is classed as functional.

pEC50, pIC50: −log10 of the molar value. Active and inactive are the calls of the source. The rule behind the calls is not given here.

One may read the pEC50 as the negative decadic logarithm of the EC50, by convention in mol/L. The CC50 is the concentration giving 50% cytotoxicity. As a reminder, the pIC50 is the negative decadic logarithm of the IC50, by convention in mol/L. With `C#CCNC(=O)CSc1cnc(Nc2ccc(C#N)cc2)nc1Oc1c(C)cc(C#N)cc1C`, the pEC50 in data set [1] is 8.11; in [2] it was under 7.00; in data set [3], 7.46 to 8.22; in data set [4], under 7.00; in [10], 8.62; in [11] it was 8.08 to 8.85. The pEC50 in data set [12] is 7.86 to 7.95. In addition, in data set [5], the selectivity ratio was 152 to 15400. In addition, the “Ratio EC50” value was 1.3 - 2.3 in data set [6] and 1.6 in [14]. The CC50 at 120 h in [7] lay within 5.1 to 149 µM. The inhibition entry in [8] was “Active”. The pIC50 in data set [9] was 7.64. Besides, the inhibition result in data set [13] is “inactive”.

For `Cc1cc(C#N)cc(C)c1Oc1nc(Nc2ccc(C#N)cc2)ncc1SCC(=O)NCCCN1CCOCC1`, the negative-log EC50 (pEC50) is 8.19 in data set [1]; under 7.00 in data set [2]; 8.22 in data set [3]; under 7.00 in data set [4]; 7.79 in data set [8] (Human immunodeficiency virus 1, MT4, 120 h); 8.59 in [10]. Besides, the pEC50 in data set [11] was 8.85; in data set [12] it was 7.94. Besides, the “Ratio EC50” value is on record as 1.5 - 3 in data set [15]; 1.5 - 3 in data set [16]; 1.5 - 3 in [6]; 1.5 - 3 in data set [17]; 1.5 - 3 in [18]; 1.5 in data set [14]. Besides, the selectivity ratio in data set [5] came out at 10000. Moreover, in data set [7], the CC50 at 120 h stood at 27.2 µM. Besides, the negative-log IC50 (pIC50) in data set [9] was 7.07 to 7.08. Also, the inhibition entry in data set [13] is “inactive”.

`Cc1cc(C#N)cc(C)c1Oc1nc(Nc2ccc(C#N)cc2)ncc1SCC(=O)NC1CC1`: the pEC50 in data set [2] was under 7.00; in data set [3], 7.46 to 8.22; in [4], under 7.00; in [10], 8.62; in data set [11] it was 8.08 to 8.85; in data set [12] it was 7.86 to 7.95. The selectivity ratio in data set [5] lay in the range of 152 to 15400. Besides, the “Ratio EC50” value was 1.3 - 2.3 in [6] and 1.6 in [14]. Also, the CC50 at 120 h in [7] fell in the range of 5.1 to 149 µM. Also, the inhibition entry in data set [8] was “Active”. The pIC50 in [9] was 7.68. For the same compound, in data set [13], the inhibition entry is “inactive”.

For the origin of these results see ChEMBL document CHEMBL4251736, “Discovery of Novel Diarylpyrimidine Derivatives as Potent HIV-1 NNRTIs Targeting the "NNRTI Adjacent" Binding Site” (ACS Med Chem Lett, 2018).
